Columns and labels:
Format in all cases: in vivo
[1] = system: wheat; assay: wheat field test, crop selectivity, greenhouse spray at 4 leaf stage; details: 250 g/ha of the active substance; 4 weeks after treatment
Procedure: (§1) The activity level standard of harmful plant destruction (i.e. growth control rate) is as follows:
(§2) The above described growth control rate is fresh weight control rate.
(§3) The seeds of alopecurus japonicas, flixweed, shepherd's purse, corn gromwell, chickweed, beckmannia syzigachne, and annual ryegrass and wheat seeds were put into a plastic pot loaded with soil, and then covered with 0.5-2 cm soil, the seeds were allowed to grow in good greenhouse environment. The test plants were treated at 4 leaf stage 2-3 weeks after sowing. The test compounds of the present invention were dissolved in acetone respectively, then added with methyl oleate emulsion and diluted by certain amount of water to certain concentration. The solution was sprayed to the plant with a sprayer. Then the plants were cultured for 4 weeks in greenhouse.

[2] = system: shepherd's purse; assay: wheat field resistant broadleaf weed control, greenhouse spray at 4 leaf stage; design: key: Level 10: completely dead; Level 9: above 95% growth control rate; Level 8: above 90% growth control rate; Level 7: above 80% growth control rate; Level 6: above 70% growth control rate; Level 5: above 60% growth control rate; Level 4: above 50% growth control rate; Level 3: above 20% growth control rate; Level 2: 5%-20% growth control rate; Level 1: below 5% growth control rate; details: 250 g/ha of the active substance; 4 weeks after treatment; ALS inhibitor resistant
Procedure: as §1, §2, §3

[3] = system: chickweed; assay: as above; design: key: Level 10: completely dead; Level 9: above 95% growth control rate; Level 8: above 90% growth control rate; Level 7: above 80% growth control rate; Level 6: above 70% growth control rate; Level 5: above 60% growth control rate; Level 4: above 50% growth control rate; Level 3: above 20% growth control rate; Level 2: 5%-20% growth control rate; Level 1: below 5% growth control rate; details: 250 g/ha of the active substance; 4 weeks after treatment; ALS inhibitor resistant
Procedure: as §1, §2, §3

[4] = system: flixweed; assay: as above; design: key: Level 10: completely dead; Level 9: above 95% growth control rate; Level 8: above 90% growth control rate; Level 7: above 80% growth control rate; Level 6: above 70% growth control rate; Level 5: above 60% growth control rate; Level 4: above 50% growth control rate; Level 3: above 20% growth control rate; Level 2: 5%-20% growth control rate; Level 1: below 5% growth control rate; details: 250 g/ha of the active substance; 4 weeks after treatment; ALS inhibitor resistant
Procedure: as §1, §2, §3

[5] = system: corn gromwell; assay: as above; design: key: Level 10: completely dead; Level 9: above 95% growth control rate; Level 8: above 90% growth control rate; Level 7: above 80% growth control rate; Level 6: above 70% growth control rate; Level 5: above 60% growth control rate; Level 4: above 50% growth control rate; Level 3: above 20% growth control rate; Level 2: 5%-20% growth control rate; Level 1: below 5% growth control rate; details: 250 g/ha of the active substance; 4 weeks after treatment; ALS inhibitor resistant
Procedure: as §1, §2, §3

[6] = system: rice; assay: post-emergence stage experiment, crop (Table 1); details: post-emergence spray at 4-5 leaf stage, 250 g/ha active ingredient with 450 kg/ha water, rated after 3 weeks in greenhouse
In short: (§4)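 Greenhouse pot test; foliar spray at 4-5 leaf stage; acetone + Tween 80 + water formulation; 3 wk post-treatment fresh-weight control rate.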

[7] = system: Indian mallow; assay: weed control effect in post-emergence stage (Table 1); design: key: Level 10: completely dead; Level 9: above 95% growth control rate; Level 8: above 90% growth control rate; Level 7: above 80% growth control rate; Level 6: above 70% growth control rate; Level 5: above 60% growth control rate; Level 4: above 50% growth control rate; Level 3: above 20% growth control rate; Level 2: 5%-20% growth control rate; Level 1: below 5% growth control rate; details: post-emergence spray at 4-5 leaf stage, 250 g/ha active ingredient with 450 kg/ha water, rated after 3 weeks in greenhouse
In short: as §4

[8] = system: rorippa indica; assay: as above; design: key: Level 10: completely dead; Level 9: above 95% growth control rate; Level 8: above 90% growth control rate; Level 7: above 80% growth control rate; Level 6: above 70% growth control rate; Level 5: above 60% growth control rate; Level 4: above 50% growth control rate; Level 3: above 20% growth control rate; Level 2: 5%-20% growth control rate; Level 1: below 5% growth control rate; details: post-emergence spray at 4-5 leaf stage, 250 g/ha active ingredient with 450 kg/ha water, rated after 3 weeks in greenhouse
In short: as §4

[9] = system: foxtail; assay: as above; design: key: Level 10: completely dead; Level 9: above 95% growth control rate; Level 8: above 90% growth control rate; Level 7: above 80% growth control rate; Level 6: above 70% growth control rate; Level 5: above 60% growth control rate; Level 4: above 50% growth control rate; Level 3: above 20% growth control rate; Level 2: 5%-20% growth control rate; Level 1: below 5% growth control rate; details: post-emergence spray at 4-5 leaf stage, 250 g/ha active ingredient with 450 kg/ha water, rated after 3 weeks in greenhouse
In short: as §4

[10] = system: echinochloa; assay: as above; design: key: Level 10: completely dead; Level 9: above 95% growth control rate; Level 8: above 90% growth control rate; Level 7: above 80% growth control rate; Level 6: above 70% growth control rate; Level 5: above 60% growth control rate; Level 4: above 50% growth control rate; Level 3: above 20% growth control rate; Level 2: 5%-20% growth control rate; Level 1: below 5% growth control rate; details: post-emergence spray at 4-5 leaf stage, 250 g/ha active ingredient with 450 kg/ha water, rated after 3 weeks in greenhouse
In short: as §4

[11] = system: crab grass; assay: as above; design: key: Level 10: completely dead; Level 9: above 95% growth control rate; Level 8: above 90% growth control rate; Level 7: above 80% growth control rate; Level 6: above 70% growth control rate; Level 5: above 60% growth control rate; Level 4: above 50% growth control rate; Level 3: above 20% growth control rate; Level 2: 5%-20% growth control rate; Level 1: below 5% growth control rate; details: post-emergence spray at 4-5 leaf stage, 250 g/ha active ingredient with 450 kg/ha water, rated after 3 weeks in greenhouse
In short: as §4

[12] = system: wheat; assay: post-emergence stage experiment, crop (Table 1); details: post-emergence spray at 4-5 leaf stage, 250 g/ha active ingredient with 450 kg/ha water, rated after 3 weeks in greenhouse
In short: as §4

[13] = system: corn; assay: post-emergence stage experiment, crop (Table 1); details: post-emergence spray at 4-5 leaf stage, 250 g/ha active ingredient with 450 kg/ha water, rated after 3 weeks in greenhouse
In short: as §4

[14] = system: bidens bipinnata; assay: weed control effect in post-emergence stage (Table 1); design: key: Level 10: completely dead; Level 9: above 95% growth control rate; Level 8: above 90% growth control rate; Level 7: above 80% growth control rate; Level 6: above 70% growth control rate; Level 5: above 60% growth control rate; Level 4: above 50% growth control rate; Level 3: above 20% growth control rate; Level 2: 5%-20% growth control rate; Level 1: below 5% growth control rate; details: post-emergence spray at 4-5 leaf stage, 250 g/ha active ingredient with 450 kg/ha water, rated after 3 weeks in greenhouse
In short: as §4

SMILES | Wheat (activity level, crop damage) [1] | shepherd's purse weed controlling effect (activity level) [2] | chickweed weed controlling effect (activity level) [3] | flixweed weed controlling effect (activity level) [4] | corn gromwell weed controlling effect (activity level) [5] | effect on crop, Rice (level) [6] | weed control effect, Indian mallow (level) [7] | weed control effect, Rorippa indica (level) [8] | weed control effect, Green foxtail (level) [9] | weed control effect, Echinochloa (level) [10] | weed control effect, Crab grass (level) [11] | effect on crop, Wheat (level) [12] | effect on crop, Corn (level) [13] | weed control effect, Bidens bipinnata (level) [14]
O=C(c1ccc(C(F)(F)F)c(N2CCCCC2=O)c1Cl)c1c(C2CC2)nn(C2CC2)c1O [Compound 148] | 1 (Level 1: below 5% growth control rate) | 10 | 10 | 10 | 10 | – | – | – | – | – | – | – | – | –
Cc1nn(C)cc1C(=O)Oc1c(C(=O)c2ccc(C(F)(F)F)c(-n3cccn3)c2Cl)c(C)nn1C [Compound 072] | 0 | 10 | 10 | 10 | 10 | 4 (Level 4: above 50% growth control rate) | 10 | 10 | 10 | 6 (Level 6: above 70% growth control rate) | 4 (Level 4: above 50% growth control rate) | 0 | 3 (Level 3: above 20% growth control rate) | –
Cc1cnn(-c2c(C(F)(F)F)ccc(C(=O)c3c(C)nn(C)c3OC(=O)c3cn(C)nc3C)c2Cl)c1 [Compound 088] | 0 | 10 | 10 | 10 | 10 | – | 10 | 10 | 10 | 10 | 9 (Level 9: above 95% growth control rate) | 0 | 0 | 4 (Level 4: above 50% growth control rate)
Cc1cnn(-c2c(C(F)(F)F)ccc(C(=O)c3c(C4CC4)nn(C)c3OC(=O)c3cn(C)nc3C)c2Cl)c1 [Compound 090] | 0 | 10 | 10 | 10 | 10 | 2 (Level 2: 5%-20% growth control rate) | 10 | 10 | 2 (Level 2: 5%-20% growth control rate) | 6 (Level 6: above 70% growth control rate) | 1 (Level 1: below 5% growth control rate) | 0 | 1 (Level 1: below 5% growth control rate) | –
Cc1nn(C)cc1C(=O)Oc1c(C(=O)c2ccc(C(F)(F)F)c(-n3cccn3)c2Cl)cnn1C [Compound 067] | 0 | 10 | 10 | 10 | 10 | 3 (Level 3: above 20% growth control rate) | 10 | 10 | 10 | 7 (Level 7: above 80% growth control rate) | 7 (Level 7: above 80% growth control rate) | 0 | 3 (Level 3: above 20% growth control rate) | –
CC(=O)N(CC(F)F)c1c(C(F)(F)F)ccc(C(=O)c2c(C)nn(C)c2O)c1Cl [Compound 005] | 0 | 10 | 10 | 10 | 10 | 7 (Level 7: above 80% growth control rate) | 10 | 10 | 5 (Level 5: above 60% growth control rate) | 10 | 2 (Level 2: 5%-20% growth control rate) | 0 | – | 10
CC(C)n1nc(C2CC2)c(C(=O)c2ccc(C(F)(F)F)c(N3CCCCC3=O)c2Cl)c1O [Compound 147] | 0 | 10 | 9 (Level 9: above 95% growth control rate) | 10 | 10 | – | – | – | – | – | – | – | – | –

Reference: patent US11076594B2, “Pyrazolone compound or salt thereof, preparation method therefor, herbicide composition and use thereof” (QINGDAO KINGAGROOT CHEMICAL COMPOUNDS CO., LTD., priority 2015, dated 2021)
